{"source": "patent US12350270B2", "about": "“Antimalarial agents” (Merck Sharp & Dohme LLC, priority 2019, dated 2025)", "data": [{"system": "parasites (ring stage, in human red blood cell culture)", "assay": "Parasite LDH growth assay (antiparasite potency, Parasite Assay)", "format": "cell-based, Plasmodium falciparum", "conditions": "0.7% rings, 2% haematocrit, 72 hours at 37° C., LDH readout of parasite growth", "method": "(§1) Assessing Antiparasite Potency in a Parasite LDH Growth Assay (Parasite Assay)\n(§2) The parasite stock was maintained at 4% haematocrit in RPMI-Hepes media buffered with sodium bicarbonate and supplemented with 5% heat inactivated human serum and 0.5% albumax.\n(§3) On the day of assay set up, a blood smear of the parasite culture was Giemsa stained and counted. The parasitemia was adjusted to 0.7% rings and the haematocrit was diluted to 2% in RPMI-Hepes media buffered with sodium bicarbonate and supplemented with 5% heat inactivated human serum and 0.5% albumax. 30 ul of diluted parasites are then added into 10 ul of media+compound in pre-prepared Greiner TC assay plates. Parasite assay plates were placed in gassed humidified boxes in single layer and allowed to incubate at 37° C. for 72 hours. After 72 hours growth, assay plates are sealed with parafilm and frozen flat, in single file at −80° C. overnight. On the following day, assay plates are allowed to thaw at room temperature for 4 hours to which an LDH assay is performed to measure parasite growth.", "units": {"EC50": "nM"}, "values": [{"compound": "CC1(C)CC(=O)N([C@@H]2CCOc3ccc(C(=O)N[C@H]4CC(C)(C)Oc5ccccc54)cc32)C(=N)N1", "note": "[Example 12A, (R)-N-((S)-2,2-dimethylchroman-4-yl)-4-(2-imino-4,4-dimethyl-6-oxotetrahydropyrimidin-1(2H)-yl)chromane-6-carboxamide]", "EC50": 1.1}]}, {"system": "parasites (ring stage, in human red blood cell culture)", "assay": "Parasite LDH growth assay (antiparasite potency, Parasite Assay)", "format": "cell-based, Plasmodium falciparum", "conditions": "Plasmodium falciparum, Erythrocyte, 72 h, 0.7% rings, 2% haematocrit, 72 hours at 37° C., LDH readout of parasite growth", "method": "as §1, §2, §3", "units": {"EC50": "nM"}, "values": [{"compound": "CCC1(CC)CC(=O)N([C@@H]2CCOc3ccc(C(=O)N[C@H]4CC(C)(C)Oc5ccc(F)cc54)cc32)C(=N)N1", "note": "[Example 7A, (R)-4-(4,4-diethyl-2-imino-6-oxotetrahydropyrimidin-1(2H)-yl)-N-((S)-6-fluoro-2,2-dimethylchroman-4-yl)chromane-6-carboxamide]", "EC50": 0.4}, {"compound": "CCC1(CC)CC(=O)N([C@@H]2CCOc3ccc(C(=O)N[C@@H]4CC(C)(C)Oc5ccc(F)cc54)cc32)C(=N)N1", "note": "[Example 7B, (R)-4-(4,4-diethyl-2-imino-6-oxotetrahydropyrimidin-1(2H)-yl)-N-((R)-6-fluoro-2,2-dimethylchroman-4-yl)chromane-6-carboxamide]", "EC50": 19}, {"compound": "CC(C)[C@]1(C)CC(=O)N([C@@H]2CCOc3ccc(C(=O)N[C@H]4CC(C)(C)Oc5ccccc54)cc32)C(=N)N1", "note": "[Example 10A, (R)-N-((S)-2,2-dimethylchroman-4-yl)-4-((S)-2-imino-4-isopropyl-4-methyl-6-oxotetrahydropyrimidin-1(2H)-yl)chromane-6-carboxamide]", "EC50": 0.5}, {"compound": "CC(C)[C@]1(C)CC(=O)N([C@@H]2CCOc3ccc(C(=O)N[C@@H]4c5ccccc5OC(C)(C)C4O)cc32)C(=N)N1", "note": "(stereo partly drawn) [Example 11B, (4R)-N-(3-hydroxy-2,2-dimethylchroman-4-yl)-4-((S)-2-imino-4-isopropyl-4-methyl-6-oxotetrahydropyrimidin-1(2H)-yl)chromane-6-carboxamide]", "EC50": 84}, {"compound": "CCC1(CC)CC(=O)N([C@@H]2CCOc3ccc(C(=O)N[C@H]4CC(C)(C)Oc5ccc(Br)cc54)cc32)C(=N)N1", "note": "[Example 14A, (R)-N-((S)-6-bromo-2,2-dimethylchroman-4-yl)-4-(4,4-diethyl-2-imino-6-oxotetrahydropyrimidin-1(2H)-yl)chromane-6-carboxamide]", "EC50": 1}, {"compound": "CCC1(CC)CC(=O)N([C@@H]2CCOc3ccc(C(=O)N[C@@H]4c5cc(Br)ccc5OC(C)(C)[C@H]4O)cc32)C(=N)N1", "note": "[Example 15A, (R)-N-((3S,4R)-6-bromo-3-hydroxy-2,2-dimethylchroman-4-yl)-4-(4,4-diethyl-2-imino-6-oxotetrahydropyrimidin-1(2H)-yl)chromane-6-carboxamide]", "EC50": 0.3}, {"compound": "CCC1(CC)CC(=O)N([C@@H]2CC(COC)Oc3ccc(C(=O)N[C@@H]4c5ccccc5OC(C)(C)[C@H]4O)cc32)C(=N)N1", "note": "(stereo partly drawn) [Example 18A, (4R)-4-(4,4-diethyl-2-imino-6-oxotetrahydropyrimidin-1(2H)-yl)-N-((3S,4R)-3-hydroxy-2,2-dimethylchroman-4-yl)-2-(methoxymethyl)chromane-6-carboxamide]", "EC50": 0.8}, {"compound": "CCC1(CC)CC(=O)N([C@@H]2CCOc3ccc(C(=O)N[C@@H]4c5cc(Cl)ccc5OC(C)(C)[C@H]4O)cc32)C(=N)N1", "note": "[Example 19A, (R)-N-((3S,4R)-6-chloro-3-hydroxy-2,2-dimethylchroman-4-yl)-4-(4,4-diethyl-2-imino-6-oxotetrahydropyrimidin-1(2H)-yl)chromane-6-carboxamide]", "EC50": 0.3}, {"compound": "CCC1(CC)CC(=O)N([C@@H]2CCOc3ccc(C(=O)N[C@@H]4c5cc(C#N)ccc5OC(C)(C)[C@H]4O)cc32)C(=N)N1", "note": "[Example 20A, (R)-N-((3S,4R)-6-cyano-3-hydroxy-2,2-dimethylchroman-4-yl)-4-(4,4-diethyl-2-imino-6-oxotetrahydropyrimidin-1(2H)-yl)chromane-6-carboxamide]", "EC50": 0.8}, {"compound": "CCC1(CC)CC(=O)N([C@@H]2CCOc3ccc(C(=O)N[C@H]4CC(C)(C)Oc5ccc(C#N)cc54)cc32)C(=N)N1", "note": "[Example 21A, (R)-N-((S)-6-cyano-2,2-dimethylchroman-4-yl)-4-(4,4-diethyl-2-imino-6-oxotetrahydropyrimidin-1(2H)-yl)chromane-6-carboxamide]", "EC50": 0.8}, {"compound": "CCC1(CC)CC(=O)N([C@@H]2CC3(COC3)Oc3ccc(C(=O)N[C@H]4CC(C)(C)Oc5ccccc54)cc32)C(=N)N1", "note": "[Example 22A, (R)-4-(4,4-diethyl-2-imino-6-oxotetrahydropyrimidin-1(2H)-yl)-N-((S)-2,2-dimethylchroman-4-yl)spiro[chromane-2,3′-oxetane]-6-carboxamide]", "EC50": 0.7}, {"compound": "CCC1(CC)CC(=O)N([C@@H]2CC3(COC3)Oc3ccc(C(=O)N[C@@H]4c5ccccc5C[C@H]4O)cc32)C(=N)N1", "note": "[Example 23A, (R)-4-(4,4-diethyl-2-imino-6-oxotetrahydropyrimidin-1(2H)-yl)-N-((1R,2R)-2-hydroxy-2,3-dihydro-1H-inden-1-yl)spiro[chromane-2,3′-oxetane]-6-carboxamide]", "EC50": 5}, {"compound": "CCC1(CC)CC(=O)N([C@@H]2CC3(COC3)Oc3ccc(C(=O)N[C@@H]4c5ccccc5OC(C)(C)[C@H]4O)cc32)C(=N)N1", "note": "[Example 24A, (R)-4-(4,4-diethyl-2-imino-6-oxotetrahydropyrimidin-1(2H)-yl)-N-((3S,4R)-3-hydroxy-2,2-dimethylchroman-4-yl)spiro[chromane-2,3′-oxetane]-6-carboxamide]", "EC50": 9.3}, {"compound": "CCC1(CC)CC(=O)N([C@@H]2CCOc3ccc(C(=O)N[C@@H]4c5cc(F)ccc5OC(C)(C)[C@H]4O)cc32)C(=N)N1", "note": "[Example 25A, (R)-4-(4,4-diethyl-2-imino-6-oxotetrahydropyrimidin-1(2H)-yl)-N-((3S,4R)-6-fluoro-3-hydroxy-2,2-dimethylchroman-4-yl)chromane-6-carboxamide]", "EC50": 0.5}, {"compound": "CCC1(CC)CC(=O)N([C@@H]2CCOc3ccc(C(=O)N[C@H]4c5cc(F)ccc5OC(C)(C)[C@@H]4O)cc32)C(=N)N1", "note": "[Example 25B, (R)-4-(4,4-diethyl-2-imino-6-oxotetrahydropyrimidin-1(2H)-yl)-N-((3R,4S)-6-fluoro-3-hydroxy-2,2-dimethylchroman-4-yl)chromane-6-carboxamide]", "EC50": 59.8}, {"compound": "CCC1(CC)CC(=O)N([C@@H]2CCOc3c(Cl)cc(C(=O)N[C@H]4CC(C)(C)Oc5ccccc54)cc32)C(=N)N1", "note": "[Example 26A, (R)-8-chloro-4-(4,4-diethyl-2-imino-6-oxotetrahydropyrimidin-1(2H)-yl)-N-((S)-2,2-dimethylchroman-4-yl)chromane-6-carboxamide]", "EC50": 1.3}, {"compound": "CCC1(CC)CC(=O)N([C@@H]2CCOc3c(Cl)cc(C(=O)N[C@@H]4CC(C)(C)Oc5ccccc54)cc32)C(=N)N1", "note": "[Example 26B, (R)-8-chloro-4-(4,4-diethyl-2-imino-6-oxotetrahydropyrimidin-1(2H)-yl)-N-((R)-2,2-dimethylchroman-4-yl)chromane-6-carboxamide]", "EC50": 180}, {"compound": "CCC1(CC)CC(=O)N([C@@H]2CCOc3c(C#N)cc(C(=O)N[C@H]4CC(C)(C)Oc5ccccc54)cc32)C(=N)N1", "note": "[Example 27A, (R)-8-cyano-4-(4,4-diethyl-2-imino-6-oxotetrahydropyrimidin-1yl)-N-((S)-2,2-dimethylchroman-4-yl)chromane-6-carboxamide]", "EC50": 1.3}, {"compound": "CCC1(CC)CC(=O)N([C@@H]2CCOc3c(C#N)cc(C(=O)N[C@@H]4c5ccccc5OC(C)(C)[C@H]4O)cc32)C(=N)N1", "note": "[Example 28A, (R)-8-cyano-4-(4,4-diethyl-2-imino-6-oxotetrahydropyrimidin-1(2H)-yl)-N-((3S,4R)-3-hydroxy-2,2-dimethylchroman-4-yl)chromane-6-carboxamide]", "EC50": 1.8}, {"compound": "CCC1(CC)CC(=O)N([C@@H]2CCOc3c(Cl)cc(C(=O)N[C@@H]4c5ccccc5OC(C)(C)[C@H]4O)cc32)C(=N)N1", "note": "[Example 29A, (R)-8-chloro-4-(4,4-diethyl-2-imino-6-oxotetrahydropyrimidin-1(2H)-yl)-N-((3S,4R)-3-hydroxy-2,2-dimethylchroman-4-yl)chromane-6-carboxamide]", "EC50": 1}, {"compound": "CCC1(CC)CC(=O)N([C@@H]2CCOc3c(Cl)cc(C(=O)N[C@H]4c5ccccc5OC(C)(C)[C@@H]4O)cc32)C(=N)N1", "note": "[Example 29B, (R)-8-chloro-4-(4,4-diethyl-2-imino-6-oxotetrahydropyrimidin-1(2H)-yl)-N-((3R,4S)-3-hydroxy-2,2-dimethylchroman-4-yl)chromane-6-carboxamide]", "EC50": 39.7}, {"compound": "CCC1(CC)CC(=O)N([C@@H]2CCOc3ccc(C(=O)N[C@@H]4c5ccccc5OC(C)(C)[C@H]4O)nc32)C(=N)N1", "note": "[Example 30A, (R)-4-(4,4-diethyl-2-imino-6-oxotetrahydropyrimidin-1(2H)-yl)-N-((3S,4R)-3-hydroxy-2,2-dimethylchroman-4-yl)-3,4-dihydro-2H-pyrano[3,2-b]pyridine-6-carboxamide]", "EC50": 0.8}, {"compound": "CCC1(CC)CC(=O)N([C@@H]2CCOc3ccc(C(=O)N[C@@H]4CC(C)(C)Oc5ccccc54)nc32)C(=N)N1", "note": "[Example 31A, (R)-4-(4,4-diethyl-2-imino-6-oxotetrahydropyrimidin-1(2H)-yl)-N-((R)-2,2-dimethylchroman-4-yl)-3,4-dihydro-2H-pyrano[3,2-b]pyridine-6-carboxamide]", "EC50": 22}, {"compound": "CCC1(CC)CC(=O)N([C@@H]2CCOc3ccc(C(=O)N[C@H]4CC(C)(C)Oc5ccccc54)nc32)C(=N)N1", "note": "[Example 31B, (R)-4-(4,4-diethyl-2-imino-6-oxotetrahydropyrimidin-1(2H)-yl)-N-((S)-2,2-dimethylchroman-4-yl)-3,4-dihydro-2H-pyrano[3,2-b]pyridine-6-carboxamide]", "EC50": 1}]}]}
